Assay [1] concerns LLC-PK1. Put plainly: Nephroprotective activity against cisplatin induced apoptosis in pig LLC-PK1 cells assessed as decrease in ratio of apoptotic cells at 125 uM incubated for 24 hrs by annexin V staining based image cytometric analysis. The format is functional, cell-based. Particulars: Sus scrofa.
In assay [2] the test system is LLC-PK1. Put plainly: Nephroprotective activity against cisplatin induced cytotoxicity in pig LLC-PK1 cells assessed as decrease in phosphorylated JNK level at 125 uM incubated for 24 hrs by Western blot analysis. Particulars: Sus scrofa. The format is functional, cell-based.
Assay [3] relates to LLC-PK1. Put plainly: Nephroprotective activity against cisplatin induced cytotoxicity in pig LLC-PK1 cells assessed as decrease in cleaved caspase-3 level at 125 uM incubated for 24 hrs by Western blot analysis. Particulars: Sus scrofa. The assay is classed as functional, cell-based. (Immunoblotting shows a protein as a band on a membrane.)
Assay [4] has as its system LLC-PK1. Put plainly: Nephroprotective activity against cisplatin induced cytotoxicity in pig LLC-PK1 cells assessed as increase in cell viability at 250 uM incubated for 24 hrs by MTT assay. The format is functional, Sus scrofa. (In general: Tetrazolium dyes change colour on reduction, which living cells bring about.)
Assay [5] concerns LLC-PK1. Put plainly: Nephroprotective activity against cisplatin induced cytotoxicity in pig LLC-PK1 cells assessed as increase in cell viability at 50 uM incubated for 24 hrs by MTT assay. The format is functional, Sus scrofa.
The test system of assay [6] is LLC-PK1. Put plainly: Nephroprotective activity against cisplatin induced cytotoxicity in pig LLC-PK1 cells assessed as decrease in phosphorylated ERK level at 125 uM incubated for 24 hrs by Western blot analysis. The assay is classed as functional, cell-based. The conditions noted are these: Sus scrofa.
Assay [7] has as its system LLC-PK1. Put plainly: Nephroprotective activity against cisplatin induced cytotoxicity in pig LLC-PK1 cells assessed as increase in cell viability at 125 uM incubated for 24 hrs by MTT assay. The format is functional, Sus scrofa.
The subject of assay [8] is LLC-PK1. Put plainly: Nephroprotective activity against cisplatin induced cytotoxicity in pig LLC-PK1 cells assessed as increase in cell viability at 25 uM incubated for 24 hrs by MTT assay. The assay is classed as functional, Sus scrofa.

Active and inactive are the calls of the source. No cut-off for these calls is given here.

With `COc1cc(Br)c(/C=C/C(=N/O)c2ccc(Cl)cc2)cc1OC`, the result with LLC-PK1 [1], with LLC-PK1 [2], with LLC-PK1 [3] and in the assay with LLC-PK1 [6] was Active. In addition, the Activity in the assay with LLC-PK1 [4] amounted to 94.51%; with LLC-PK1 [5] it was 82.22%; in the assay with LLC-PK1 [7], 84.41%.

For the compound `COc1cc(Br)c(/C=C/C(=N/O)c2ccc(Br)cc2)cc1OC`, the outcome in the assay with LLC-PK1 [1], in the assay with LLC-PK1 [2], with LLC-PK1 [3] and in the assay on LLC-PK1 [6] was Active. Moreover, the Activity was found to be 94.78% with LLC-PK1 [4], 83.86% in the assay with LLC-PK1 [5], 66.83% in the assay with LLC-PK1 [8] and 83.79% with LLC-PK1 [7].

For the origin of these results see ChEMBL document CHEMBL5223153, “Elucidation of protective effects of oxime derivatives against cisplatin-induced cytotoxicity in LLC-PK1 kidney cells” (2023).
